In the assay the target is T1, PmrA (Salmonella enterica, UniProt A0A0F6BAF1).
T1 construct: gene basR
Nature of the assay: isothermal titration calorimetry. In kind it is binding. For orientation: Isothermal titration calorimetry measures the heat released or taken up as one component is titrated into another.

T1 sequence (A0A0F6BAF1 entry or part of it): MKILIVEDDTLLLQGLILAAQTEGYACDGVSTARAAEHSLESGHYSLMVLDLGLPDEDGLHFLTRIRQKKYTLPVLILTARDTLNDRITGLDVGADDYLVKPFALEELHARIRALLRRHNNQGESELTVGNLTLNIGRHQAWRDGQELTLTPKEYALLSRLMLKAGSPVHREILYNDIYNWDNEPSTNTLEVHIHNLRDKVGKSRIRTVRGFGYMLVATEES

Usually Kd stands for the equilibrium constant for the complex coming apart. Low readings indicate tighter binding, high ones weaker binding. In the case of `C=CCc1ccc(O)c(-c2cc(CC=C)ccc2O)c1` [magnolol], binding was characterised by a dissociation constant (Kd) of 2000 nM.

Values taken from publication PMC12774351, “A lignan compound regulates LPS modifications via PmrA/B signaling cascades to potentiate colistin efficacy in vivo” (PLOS Pathogens, 2025).
